Data reported in patent US8933244B2, “Stabilized active halogen solutions” (Lonza Inc., priority 2009, dated 2015).

How the values were obtained:
[1] = test system: Enterobacter aerogenes (ATCC 13048) and Pseudomonas aeruginosa (ATCC 15442); assay: Biocidal efficacy in paper pulp slurry (modified ASTM E: 1839-07); format: cell-based; conditions: 2 ppm total Cl2, 3 h, 34° C., DMH 1.81 ppm alone
Experimental: The conditions of the experiment were a modification of the method described in ASTM E: 1839-07. A 1% pulp slurry was prepared via shredding white laser printer paper and adding to an appropriate amount of 400 ppm alkalinity (as CaCO3) water solution. The slurry was rapidly mixed while heating to 98(±2) ° C., followed by cooling to room temperature. The pH was adjusted to 8.5 with 1N H2SO4 and the slurry was diluted to 0.5% with deionized water. A 98(±1) mL aliquot was transferred to a 125 mL sample flask and steam sterilized and cooled to room temperature prior to use.
Stock solutions of NaOCl at either 51,000 ppm or 400 ppm (as Cl2) were freshly prepared prior to the organism challenge test. Dilutions of the test samples were made in order to prepare a sample solution at the desired Cl2:Active Ingredient molar ratio and the flasks were dosed according to the target total Cl2 desired (2 ppm total Cl2).
Twenty four hour cultures of Enterobacter aerogenes (ATCC 13048) and Pseudomonas aeruginosa (ATCC 15442) were used for the testing. Microbiological counts were performed using tryptic soy agar (TSA) […] by known pour plate techniques. Final bacterial concentration of the inoculum was between 2×10^6 and 1×10^7 CFU/mL. 1 mL of the inoculum was then placed into each of the sample to be tested and the samples placed onto a shaker for 3 hours at 34° C. After the 3 hour contact time, DIFCO Dey-Engley (D/E) Neutralizing Broth was used as the first serial dilution tube for biocide neutralization and dilutions were plated through 10^6.

[2] = Continuous flow mixing of stabilizer solution with sodium hypochlorite: temperature excursion and pH change; format: physicochemical; conditions: for ΔpH: 12.2% NaOCl (initial pH 12.6); for ΔT: 12.2% NaOCl
Experimental: For each data point, the combined flow rates of the stabilizer and hypochlorite solutions were adjusted in order to maintain the desired molar ratio of NaOCl to active ingredient (A.I.). The solution temperature was recorded before the onset of flow and after combination with the hypochlorite solution. In addition, the final pH of the resulting collected solution was recorded after a 2 min interval of continuous flow.
Stabilizer solutions of the present invention were prepared via dissolution of at least one substituted N-hydrogen compound (DMH=5,5-dimethylhydantoin and/or Amine=ethanolamine, morpholine) (i), and of at least one additional containing nitrogen compound (ii) in water with the pH adjusted to 7-9.5, if necessary. […]
Sodium hypochlorite solutions were used directly at high concentration (12.2%).
Consistent with known ammonia and urea chemistry (vide supra), mixing a halogen source and ammonium salt solutions at Cl2:N ratios greater than 1 (e.g., 2-4) usually results in substantial exothermic temperature excursions (ΔT, in Kelvin) and reductions in pH due to decomposition reactions that occur.

[3] = high pH (12.4-13.4); Cl2:urea ratios of 1:1-2:1; WO 2007/089539 A2 / US 2007/0178173 A1; cited from earlier work
[4] = 15% active ingredients, Cl2:NH3 or Cl2:Urea 2
[5] = 15% active ingredients, Cl2:NH3 or Cl2:Urea 4
[6] = 17% active ingredients, Cl2:NH3 or Cl2:Urea 4
[7] = 5% active ingredients, Cl2:NH3 or Cl2:Urea 2.5
[8] = 15% active ingredients, Cl2:NH3 or Cl2:Urea 8

## CC1(C)NC(=O)NC1=O [DMH, 5,5-dimethylhydantoin]
[1]; box paper pulp slurry
  Efficacy (Δlg): 0.1 Δlg
[1]; fine paper pulp slurry (Table 3 series)
  Efficacy (Δlg): 3.2 Δlg
[1]; fine paper pulp slurry (Table 4 series)
  Efficacy (Δlg): 2.9 Δlg

## Br.N [NH4Br, ammonium bromide]
[2]; [4]
  ΔpH: −9.5
  ΔT: 37 K
[2]; [5]
  ΔpH: −5.3
  ΔT: 31 K
[2]; [6]
  ΔpH: −5.3
  ΔT: 34 K

## NC(N)=O [Urea, urea]
[2]; [7]
  ΔpH: −0.5
  ΔT: 18 K
[2]; [8]
  ΔpH: −0.7
  ΔT: 36 K
[3]
  total halogen yield: 48-69%
